Results on one compound are retold here after patent US20110020801A1, “Carboxylesterase-1 Polymorphisms and Methods of Use Therefor” (priority 2007, published 2011).

One assay addresses T1, WT CES1 (Homo sapiens, UniProt P23141).
T1 construct: inserting a stop codon after CES1A1 gene to yield the constructs expressing CES1 without V5-His tag; expressed in transfected cells
T1 sequence (P23141 18-567): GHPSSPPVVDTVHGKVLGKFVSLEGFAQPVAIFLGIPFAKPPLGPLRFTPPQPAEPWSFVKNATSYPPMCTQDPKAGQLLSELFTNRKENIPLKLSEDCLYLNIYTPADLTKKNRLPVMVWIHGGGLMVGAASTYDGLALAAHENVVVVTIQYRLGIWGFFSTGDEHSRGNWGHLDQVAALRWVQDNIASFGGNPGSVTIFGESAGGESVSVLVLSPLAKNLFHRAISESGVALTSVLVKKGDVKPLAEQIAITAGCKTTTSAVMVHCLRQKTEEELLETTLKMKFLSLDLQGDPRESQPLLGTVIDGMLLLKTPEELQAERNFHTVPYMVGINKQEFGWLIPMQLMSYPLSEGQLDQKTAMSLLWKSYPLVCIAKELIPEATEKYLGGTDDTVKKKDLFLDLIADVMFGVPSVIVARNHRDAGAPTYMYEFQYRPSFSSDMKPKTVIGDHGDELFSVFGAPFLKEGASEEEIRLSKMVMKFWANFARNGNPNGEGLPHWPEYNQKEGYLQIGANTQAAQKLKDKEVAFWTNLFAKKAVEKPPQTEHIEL
The assay is described as follows: MPH hydrolysis to ritalinic acid by S9 of cells expressing WT CES1 (HPLC). Type of assay: biochemical. As to conditions: S9 0.5 mg/mL, 37° C., 2 hours, mean ± S.D. (n = 3), listed as d-isomer. The source says: (§1) The desired plasmid was designed such that the recombinant CES1 would be expressed in mammalian cells with a V5-His tag to facilitate detection and purification. Additionally, another plasmid was generated by inserting a stop codon after CES1A1 gene to yield the constructs expressing CES1 without V5-His tag. […] Thus, only untagged CES1 and its associated mutants were used in the enzymatic hydrolysis study. Two constructs of CES1 mutations, p.Gly143Glu and p.Asp260fs, were generated using a site-directed mutagenesis assay. All constructs were subjected to DNA sequencing analysis to confirm that the desired plasmids were obtained. The identified CES1A1 plasmids (WT, p.Gly143Glu, and p.Asp260fs) were co-transfected with pOG44 plasmid at a ratio of 1:10 into Flp-In™-293 cells using […] (Invitrogen, Carlsbad, Calif.). Additionally, the self-ligated pcDNA5/FRT/V5-His-TOPO® vector was included as a vector control. Twenty-four hours after transfection, cells were washed with PBS and fresh complete medium (Dulbecco's modified Eagle's medium containing 10% fetal bovine serum) was added. […]
(§2) After attaining approximately 95% confluence, cells were rinsed and harvested in PBS containing 10 mM HEPES (pH 7.4). […] The protein concentration was determined using a Pierce BCA assay kit (Rockford, Ill.).
(§3) For the study of MPH hydrolysis, the reaction was conducted in 1.5 mL eppendorf tubes with a final S9 concentration of 0.5 mg/mL at a total volume of 100 μL. […] Concentrations of the primary phase I MPH metabolite produced via hydrolysis, ritalinic acid (RA), was determined utilizing an established HPLC method described below.
(§4) Thus, following the enzymatic assay, the values determined for spontaneous PNP and RA hydrolysis were subtracted from the total PNP and RA production. […] All collected data were fit to the Michaelis-Menten equation, and kinetic parameters were calculated using nonlinear regression analysis with Graphpad Prism software (Graphpad Software Inc., San Diego, Calif.) […]

The target of a further assay is T2, p.Asp260fs CES1 (Homo sapiens, UniProt P23141).
T2 construct: a frameshift mutation that alters residues 260-299 and causes early truncation at a premature stop codon; expressed in transfected cells
T2 sequence (P23141 with tags, fused parts or gaps): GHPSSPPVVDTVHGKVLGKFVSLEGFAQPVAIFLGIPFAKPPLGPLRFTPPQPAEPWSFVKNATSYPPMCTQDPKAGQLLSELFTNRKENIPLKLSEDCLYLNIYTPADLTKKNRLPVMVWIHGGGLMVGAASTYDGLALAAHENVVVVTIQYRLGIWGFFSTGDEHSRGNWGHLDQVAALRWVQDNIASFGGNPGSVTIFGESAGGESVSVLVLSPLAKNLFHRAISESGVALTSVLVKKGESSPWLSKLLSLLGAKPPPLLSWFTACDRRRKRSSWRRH
The assay is described as follows: MPH hydrolysis to ritalinic acid by S9 of cells expressing p.Asp260fs CES1 (HPLC). Type of assay: biochemical. As to conditions: S9 500 μg/ml, even at very high S9 concentration (2 mg/ml); 37° C., 2 h.
Source text: as §1, §2, §3, §4

Structures are written as SMILES.

Consider `COC(=O)[C@H](c1ccccc1)[C@H]1CCCCN1` [d-MPH, methylphenidate], for which the Vmax at WT CES1 was 177.2 pmole/min/mg protein. Also, the “catalytic activity towards MPH hydrolysis” value at p.Asp260fs CES1 is reported as “failed to show any hydrolytic activity”.
